# Legend:
# HeLa cells = assay: Inhibition of endocytosis (uptake and GFP knockdown with small molecule inhibitors); assay type: cell-based, human; details: HeLa cells pre-incubated with inhibitor 1 h
# Method: HeLa cells grown in 96-well plates at ˜70% confluence were incubated with small molecule inhibitors for 1 h at 37° C., followed by incubation with tetramethylrhodamine-labeled TP-LyP1 (3 μM) or TPNs containing both labeled peptide (3 μM) and GFP siRNA (100 nM) for an additional hour at 37° C. The cells were washed three times with cold PBS and were subsequently either imaged with a CCD camera mounted on a Nikon TE200 inverted epifluorescence microscope (for peptide-only), or trypsinized for flow cytometry analysis by the BD-LSR II system to assess GFP expression (for incubations with nanocomplexes).
# To identify the mechanism by which tandem peptides enter cells, these experiments were repeated in the presence of a variety of endocytosis inhibitors [Veldhoen, S., Laufer, S. D., Trampe, A. & Restle, T. Cellular delivery of small interfering RNA by a non-covalently attached cell-penetrating peptide: quantitative analysis of uptake and biological effect. Nucleic Acids Res 34, 6561-6573, (2006)]. […] Thus, tandem peptides are taken up by cells mainly via macropinocytosis and lipid-raft.
# p32 receptor = molecular target: T1, p32 receptor (Homo sapiens, UniProt Q07021); assay: Competition of GFP silencing with free LyP-1 peptide; assay type: cell-based; details: nanocomplexes on HeLa cells
# T1 construct: incubated over Hela cells, which express p32 on the cell surface; endogenous in cells; host or cells: HeLa (stably expressing dGFP)
# T1 sequence (Q07021 74-282): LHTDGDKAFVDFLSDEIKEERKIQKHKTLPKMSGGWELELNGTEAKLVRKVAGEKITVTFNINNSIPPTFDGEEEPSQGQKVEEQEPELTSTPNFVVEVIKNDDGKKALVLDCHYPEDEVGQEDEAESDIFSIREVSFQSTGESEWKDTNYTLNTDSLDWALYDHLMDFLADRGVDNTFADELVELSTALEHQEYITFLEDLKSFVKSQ
# Method: For the initial screen, HeLa cells stably expressing destabilized GFP were cultured in 96-well plates to ˜70-80% confluence. siRNA (0-100 nM) was incubated with 20-fold molar excess of tetramethylrhodamine-labelled tandem peptides in PBS for 10-15 min at room temperature, then incubated over cells in DMEM for 4 h at 37° C., after which the medium was replaced. The complexes were then added to HeLa cell cultures and incubated for 4 h at 37° C., after which the medium was replaced with 100 μL of fresh medium with 10% serum. […] For competition experiments with free LyP-1 peptide, cells were pre-incubated with unlabeled LyP-1 peptide or ARAL control peptide at specified concentrations for 1 h at 37° C. before treatment with peptide/siRNA complexes.
# tumor parenchyma = assay: Tumor penetration with iRGD in place of Lyp-1; assay type: in vivo; details: data not shown
Molecule,GFP knockdown in presence of inhibitor (HeLa cells),cell binding of tandem peptide in presence of inhibitor (HeLa cells),effect of control peptide on GFP silencing (p32 receptor),tumor penetration (tumor parenchyma)
OCC1OC(O)CC(O)C1O (stereo not drawn) [Deoxyglucose],inhibited GFP knockdown,,,
CCCCCCCCCC(=O)NC(CN1CCOCC1)C(O)c1ccccc1 (stereo not drawn) [PDMP],significantly decreased,significantly decreased,,
N=C(N)NC(=O)c1nc(Cl)c(N)nc1N [amiloride],significantly decreased,significantly decreased,,
OC[C@H]1O[C@@H]2O[C@H]3[C@H](O)[C@@H](O)[C@@H](O[C@H]4[C@H](O)[C@@H](O)[C@@H](O[C@H]5[C@H](O)[C@@H](O)[C@@H](O[C@H]6[C@H](O)[C@@H](O)[C@@H](O[C@H]7[C@H](O)[C@@H](O)[C@@H](O[C@H]8[C@H](O)[C@@H](O)[C@@H](O[C@H]1[C@H](O)[C@H]2O)O[C@@H]8CO)O[C@@H]7CO)O[C@@H]6CO)O[C@@H]5CO)O[C@@H]4CO)O[C@@H]3CO [β-cyclodextrin],significantly decreased,significantly decreased,,
ARALPSQRSR [control peptide],,,no effect,
CRGDKGPDC [iRGD],,,,penetrate tumor parenchyma in a to time-dependent manner
